Laboratory results reported in PubChem BioAssay AID1259407 (Chemical Carcinogenesis Research Information System (CCRIS), 2018).
Activity calls are given as the source filed them. No rule for the calls is given here.

System: CCRIS mutagenicity, Ames/micronucleus/aberration tests
Assay: CCRIS mutagenicity studies
[1] = Test System: AMES SALMONELLA TYPHIMURIUM, Strain/Indicator: TA98, Metabolic Activation: NONE, Method: STANDARD PLATE
[2] = Test System: AMES SALMONELLA TYPHIMURIUM, Strain/Indicator: TA98, Metabolic Activation: RAT, LIVER, S-9, AROCLOR 1254, Method: STANDARD PLATE
[3] = Test System: AMES SALMONELLA TYPHIMURIUM, Strain/Indicator: TA100, Metabolic Activation: NONE, Method: STANDARD PLATE
[4] = Test System: AMES SALMONELLA TYPHIMURIUM, Strain/Indicator: TA100, Metabolic Activation: RAT, LIVER, S-9, AROCLOR 1254, Method: STANDARD PLATE
[5] = Test System: AMES SALMONELLA TYPHIMURIUM, Strain/Indicator: TA1535, Metabolic Activation: NONE, Method: STANDARD PLATE
[6] = Test System: AMES SALMONELLA TYPHIMURIUM, Strain/Indicator: TA1535, Metabolic Activation: RAT, LIVER, S-9, AROCLOR 1254, Method: STANDARD PLATE
[7] = Test System: AMES SALMONELLA TYPHIMURIUM, Strain/Indicator: TA1537, Metabolic Activation: NONE, Method: STANDARD PLATE
[8] = Test System: AMES SALMONELLA TYPHIMURIUM, Strain/Indicator: TA1537, Metabolic Activation: RAT, LIVER, S-9, AROCLOR 1254, Method: STANDARD PLATE
[9] = Test System: AMES SALMONELLA TYPHIMURIUM, Strain/Indicator: TA1538, Metabolic Activation: NONE, Method: STANDARD PLATE
[10] = Test System: AMES SALMONELLA TYPHIMURIUM, Strain/Indicator: TA1538, Metabolic Activation: RAT, LIVER, S-9, AROCLOR 1254, Method: STANDARD PLATE
[11] = Test System: AMES SALMONELLA TYPHIMURIUM, Strain/Indicator: TA98, Metabolic Activation: NONE, Method: PREINCUBATION
[12] = Test System: AMES SALMONELLA TYPHIMURIUM, Strain/Indicator: TA100, Metabolic Activation: NONE, Method: PREINCUBATION
[13] = Test System: AMES SALMONELLA TYPHIMURIUM, Strain/Indicator: TA1535, Metabolic Activation: NONE, Method: PREINCUBATION
[14] = Test System: AMES SALMONELLA TYPHIMURIUM, Strain/Indicator: TA1537, Metabolic Activation: NONE, Method: PREINCUBATION

Measured: mutagenic call

[Cl][Sn][Cl]
inactive: [1] inactive; negative | [2] inactive; negative | [3] inactive; negative | [4] inactive; negative | [5] inactive; negative | [6] inactive; negative | [7] inactive; negative | [8] inactive; negative | [9] inactive; negative | [10] inactive; negative | Test System: E. COLI, Strain/Indicator: WP2, Metabolic Activation: NONE, Method: STANDARD PLATE inactive; negative | Test System: E. COLI, Strain/Indicator: WP2, Metabolic Activation: RAT, LIVER, S-9, AROCLOR 1254, Method: STANDARD PLATE inactive; negative | Test System: E. COLI, Strain/Indicator: WP2 UVRA, Metabolic Activation: NONE, Method: SPOT TEST inactive; negative | Test System: UDS RAT HEPATOCYTES, Strain/Indicator: THY INCORP, Metabolic Activation: NONE inactive; negative
active: End Point: IN VITRO CHROMOSOMAL ABERRATIONS, Test System: CHO CELLS, Metabolic Activation: RAT, LIVER, S-9, AROCLOR 1254 active; positive; precipitation occurred at all doses | End Point: In vivo chromosomal aberrations, Test System: Bone marrow cells (dams), liver cells (fetuses), Species: Mouse, Strain/Sex: Swiss/Female, Route: Oral active; positive (structural and ploidy changes)

[O-][n+]1c2ccccc2c2ccc3cccc4ccc1c2c34
inactive: Test System: AMES SALMONELLA TYPHIMURIUM, Strain/Indicator: TA98, Metabolic Activation: NONE inactive; negative | Test System: AMES SALMONELLA TYPHIMURIUM, Strain/Indicator: TA100, Metabolic Activation: NONE inactive; negative
active: Test System: AMES SALMONELLA TYPHIMURIUM, Strain/Indicator: TA98, Metabolic Activation: S-9 active; positive | Test System: AMES SALMONELLA TYPHIMURIUM, Strain/Indicator: TA100, Metabolic Activation: S-9 active; positive

CC(=O)Oc1ccccc1C(=O)Oc1ccccc1C(=O)O
inactive: Test System: AMES SALMONELLA TYPHIMURIUM, Strain/Indicator: TA97, Metabolic Activation: NONE, Method: STANDARD PLATE inactive; negative | Test System: AMES SALMONELLA TYPHIMURIUM, Strain/Indicator: TA97, Metabolic Activation: RAT, LIVER, S-9, AROCLOR 1254, Method: STANDARD PLATE inactive; negative | [1] inactive; negative | [2] inactive; negative | [3] inactive; negative | [4] inactive; negative | [5] inactive; negative | [6] inactive; negative | [7] inactive; negative | [8] inactive; negative | [9] inactive; negative | [10] inactive; negative

Clc1cccc(Cl)c1Cl
inactive: Test System: AMES SALMONELLA TYPHIMURIUM, Strain/Indicator: TA98, Metabolic Activation: HAMSTER, LIVER, S-9, AROCLOR 1254, Method: PREINCUBATION inactive; negative | [11] inactive; negative | Test System: AMES SALMONELLA TYPHIMURIUM, Strain/Indicator: TA98, Metabolic Activation: RAT, LIVER, S-9, AROCLOR 1254, Method: PREINCUBATION inactive; negative | Test System: AMES SALMONELLA TYPHIMURIUM, Strain/Indicator: TA100, Metabolic Activation: HAMSTER, LIVER, S-9, AROCLOR 1254, Method: PREINCUBATION inactive; negative | [12] inactive; negative | Test System: AMES SALMONELLA TYPHIMURIUM, Strain/Indicator: TA100, Metabolic Activation: RAT, LIVER, S-9, AROCLOR 1254, Method: PREINCUBATION inactive; negative | Test System: AMES SALMONELLA TYPHIMURIUM, Strain/Indicator: TA1535, Metabolic Activation: HAMSTER, LIVER, S-9, AROCLOR 1254, Method: PREINCUBATION inactive; negative | [13] inactive; negative | Test System: AMES SALMONELLA TYPHIMURIUM, Strain/Indicator: TA1535, Metabolic Activation: RAT, LIVER, S-9, AROCLOR 1254, Method: PREINCUBATION inactive; negative | Test System: AMES SALMONELLA TYPHIMURIUM, Strain/Indicator: TA1537, Metabolic Activation: HAMSTER, LIVER, S-9, AROCLOR 1254, Method: PREINCUBATION inactive; negative | [14] inactive; negative | Test System: AMES SALMONELLA TYPHIMURIUM, Strain/Indicator: TA1537, Metabolic Activation: RAT, LIVER, S-9, AROCLOR 1254, Method: PREINCUBATION inactive; negative

Nc1cc2ccc3cccc4ccc(c1)c2c34
active: Test System: AMES SALMONELLA TYPHIMURIUM, Strain/Indicator: TA98, Metabolic Activation: RAT, LIVER, S-9, AROCLOR 1254 (2 OR 4%), Method: STANDARD PLATE active; positive | Test System: AMES SALMONELLA TYPHIMURIUM, Strain/Indicator: TA100, Metabolic Activation: RAT, LIVER, S-9, AROCLOR 1254 (2%), Method: STANDARD PLATE active; positive | Test System: AMES SALMONELLA TYPHIMURIUM, Strain/Indicator: TA1537, Metabolic Activation: RAT, LIVER, S-9, AROCLOR 1254 (2%), Method: STANDARD PLATE active; positive
inactive: Test System: AMES SALMONELLA TYPHIMURIUM, Strain/Indicator: TA1535, Metabolic Activation: RAT, LIVER, S-9, AROCLOR 1254 (2%), Method: STANDARD PLATE inactive; negative

CC(CO)(CO)CO
inactive: [11] inactive; negative | Test System: AMES SALMONELLA TYPHIMURIUM, Strain/Indicator: TA98, Metabolic Activation: RAT LIVER S-9, PHENOBARBITAL AND BETA-NAPHTHOFLAVONE, Method: PREINCUBATION inactive; negative | [12] inactive; negative | Test System: AMES SALMONELLA TYPHIMURIUM, Strain/Indicator: TA100, Metabolic Activation: RAT LIVER S-9, PHENOBARBITAL AND BETA-NAPHTHOFLAVONE, Method: PREINCUBATION inactive; negative | [13] inactive; negative | Test System: AMES SALMONELLA TYPHIMURIUM, Strain/Indicator: TA1535, Metabolic Activation: RAT LIVER S-9, PHENOBARBITAL AND BETA-NAPHTHOFLAVONE, Method: PREINCUBATION inactive; negative | [14] inactive; negative | Test System: AMES SALMONELLA TYPHIMURIUM, Strain/Indicator: TA1537, Metabolic Activation: RAT LIVER S-9, PHENOBARBITAL AND BETA-NAPHTHOFLAVONE, Method: PREINCUBATION inactive; negative | Test System: E.COLI, Strain/Indicator: WP2UVRA/PKM101, Metabolic Activation: NONE, Method: PREINCUBATION inactive; negative | Test System: E.COLI, Strain/Indicator: WP2UVRA/PKM101, Metabolic Activation: RAT LIVER S-9, PHENOBARBITAL AND BETA-NAPHTHOFLAVONE, Method: PREINCUBATION inactive; negative

CCCS
inactive: Test System: Mouse lymphoma, Strain/Indicator: L5178Y (tk+/tk-), Metabolic Activation: None, Method: Suspension/plate inactive; negative
active: Test System: MOUSE LYMPHOMA, Strain/Indicator: L5178Y (TK+/TK-), Metabolic Activation: RAT, LIVER, S-9, AROCLOR 1254, Method: SUSPENSION/PLATE active; positive. reevaluation of results: equivocal
